Laboratory results from BindingDB's records for doi:10.3109/14756366.2012.681651 (East China University of Science and Technology, 2013).

Molecular target: Ribosomal protein S6 kinase alpha-3 (Homo sapiens, UniProt P51812)
Experiment: RSK2 Inhibition Assay
Details: pH 7.4; 25 °C
Method: The inhibition assays against RSK2 in vitro were determined by ADP Quest® (DiscoveRx) in 96-well flat-bottom plates according to the manufacturer's instructions [Lu et al., J. Med. Chem., 54:3564-3574]. The kinase (20 ng millipore) in 40 μL assay buffer (15 mM HEPES, pH 7.4, 20 mM NaCl, 1 mM EGTA, 0.02% Tween 20, 10 mM MgCl2, and 0.1 mg/mL BGG) containing 25 μM S6 peptide (AKRRRLSSLRA, Anaspec) was incubated for 20 min at room temperature with indicated concentrations of the compounds to be tested. Reactions were initiated by adding 10 μL of ATP to a final ATP concentration of 10 μM and terminated after 60 min at room temperature by adding 20 μL ADP Reagent A and 40 μL ADP Reagent B. Ro31-8220 was used as a positive control. Compounds dilutions were prepared from stock in DMSO and diluted with assay buffer for inhibition assay. The fluorescence signal detecting the amount of ADP produced as a result of enzyme activity was recorded on the Synergy™ 2 Multi-Mode Microplate Reader (BioTek) at an excitation wavelength of 530 nm and an emission wavelength of 590 nm at 30 min after the addition of the ADP Reagent B.

Sequence of Ribosomal protein S6 kinase alpha-3 (P51812 whole entry): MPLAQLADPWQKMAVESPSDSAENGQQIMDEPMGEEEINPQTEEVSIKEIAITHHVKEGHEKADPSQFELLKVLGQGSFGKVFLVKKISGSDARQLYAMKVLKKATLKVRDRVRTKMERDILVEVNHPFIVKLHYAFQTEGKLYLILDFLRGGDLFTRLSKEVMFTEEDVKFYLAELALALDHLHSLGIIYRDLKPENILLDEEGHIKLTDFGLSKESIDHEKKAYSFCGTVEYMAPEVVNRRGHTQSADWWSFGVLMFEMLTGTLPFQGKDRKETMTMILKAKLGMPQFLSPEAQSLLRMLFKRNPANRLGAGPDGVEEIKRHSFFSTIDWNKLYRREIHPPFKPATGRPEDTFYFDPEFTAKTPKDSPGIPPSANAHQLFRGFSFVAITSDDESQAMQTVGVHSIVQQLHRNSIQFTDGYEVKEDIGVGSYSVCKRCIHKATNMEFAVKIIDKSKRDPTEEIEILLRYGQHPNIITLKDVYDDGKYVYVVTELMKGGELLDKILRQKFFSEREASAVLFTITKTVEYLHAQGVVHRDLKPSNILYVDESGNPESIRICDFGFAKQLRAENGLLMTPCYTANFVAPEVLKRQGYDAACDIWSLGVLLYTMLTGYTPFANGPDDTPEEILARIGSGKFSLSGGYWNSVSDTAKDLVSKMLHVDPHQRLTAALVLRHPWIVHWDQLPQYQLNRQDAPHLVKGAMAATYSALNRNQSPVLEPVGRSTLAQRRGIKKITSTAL

First: O=C1NC(=O)C(=NNc2ccc(N3CCOCC3)cc2)C(=O)N1 [5-(2-(4-Morpholinophenyl)hydrazono)pyrimidine-2,4,6(1H,3H,5H)-trione (13)]
Second: O=C1NC(=S)NC(=O)C1=NNc1ccc(N2CCOCC2)cc1 [5-(2-(4-Morpholinophenyl)hydrazono-dihydro-2-thioxopyrimidine-4,6(1H,5H)-dione (15)]
The IC50 of the first is 1.8-fold lower: 5.11 µM for the first, 9.23 µM for the second. The first is the more potent here.

O=C1NC(=O)C(=NNc2ccc(O)cc2)C(=O)N1 [5-(2-(4-Hydroxyphenyl)hydrazono)pyrimidine-2,4,6(1H,3H,5H)-trione (9)] and O=C1NC(=S)NC(=O)C1=NNc1ccc(O)cc1 [5-(2-(4-Hydroxyphenyl)hydrazono)-dihydro-2-thioxopyrimidine-4,6(1H,5H)-dione (14)] are within 1.5-fold of each other in IC50: 1.95 µM for the first, 2.19 µM for the second.
